Assay in all cases: MIC determination by NCCLS dilution antimicrobial susceptibility test
Common to all, as to assay type: cell-based

For assay [1], the system named is enterococcus faecalis 1528 (VRE). Conditions: vanA-type vancomycin resistance. The text has this:
(§1) The antibacterial effects of HKI10311129 can be determined by applying methods well-known to the experts, such as the agar plate diffusion test and the determination of the minimal inhibitory concentration (MIC).
(§2) The antimicrobial characteristics have been tested according to the US laboratory standards—National Committee for Clinical Laboratory Standards, Methods for dilution anti-microbial susceptibility tests for bacteria that grow aerobically, Approved Standard M7-A. NCCLS, Villanova, Pa., 1991).

Assay [2] deals with bacillus subtilis ATCC 6633. The following applies: ATCC6633.
Excerpt: as §1, §2

The subject of assay [3] is staphylococcus aureus SG 511. Conditions: SG511.
Excerpt: as §1, §2

In assay [4] the test system is staphylococcus aureus 134/93 (MRSA). Conditions: multiresistant.
Excerpt: as §1, §2

Converted amounts (≈) assume the structure as drawn.

A word on the MIC: it is the lowest concentration that inhibits growth of the organism. A higher MIC goes with a less susceptible organism. Turning to `COC1=CC(=O)c2c(cc3c(c2O)C(=O)C2(OC4CCC(OC5CCC(O)C(C)O5)C(C)O4)C(=O)C(C(N)=O)=C(O)C(OC4CCC(OC5CCC(OC6CCC(OC7CCC(O)C(C)O7)C(C)O6)C(C)O5)C(C)O4)C2C3)C1=O` (stereo not shown) [HKI10311129], the MIC in assay [1] is 0.4 µg/mL (≈ 0.359 µM); in assay [2], below 0.05 µg/mL; in assay [3] it was 0.8 µg/mL (≈ 0.718 µM); in assay [4], 0.8 µg/mL (≈ 0.718 µM).
